Assays:
EHMT1 = target: T1, EHMT1 (Homo sapiens, UniProt Q9H9B1); experiment: EHMT1 PEP; type: biochemical
T1 sequence (Q9H9B1 1-1298): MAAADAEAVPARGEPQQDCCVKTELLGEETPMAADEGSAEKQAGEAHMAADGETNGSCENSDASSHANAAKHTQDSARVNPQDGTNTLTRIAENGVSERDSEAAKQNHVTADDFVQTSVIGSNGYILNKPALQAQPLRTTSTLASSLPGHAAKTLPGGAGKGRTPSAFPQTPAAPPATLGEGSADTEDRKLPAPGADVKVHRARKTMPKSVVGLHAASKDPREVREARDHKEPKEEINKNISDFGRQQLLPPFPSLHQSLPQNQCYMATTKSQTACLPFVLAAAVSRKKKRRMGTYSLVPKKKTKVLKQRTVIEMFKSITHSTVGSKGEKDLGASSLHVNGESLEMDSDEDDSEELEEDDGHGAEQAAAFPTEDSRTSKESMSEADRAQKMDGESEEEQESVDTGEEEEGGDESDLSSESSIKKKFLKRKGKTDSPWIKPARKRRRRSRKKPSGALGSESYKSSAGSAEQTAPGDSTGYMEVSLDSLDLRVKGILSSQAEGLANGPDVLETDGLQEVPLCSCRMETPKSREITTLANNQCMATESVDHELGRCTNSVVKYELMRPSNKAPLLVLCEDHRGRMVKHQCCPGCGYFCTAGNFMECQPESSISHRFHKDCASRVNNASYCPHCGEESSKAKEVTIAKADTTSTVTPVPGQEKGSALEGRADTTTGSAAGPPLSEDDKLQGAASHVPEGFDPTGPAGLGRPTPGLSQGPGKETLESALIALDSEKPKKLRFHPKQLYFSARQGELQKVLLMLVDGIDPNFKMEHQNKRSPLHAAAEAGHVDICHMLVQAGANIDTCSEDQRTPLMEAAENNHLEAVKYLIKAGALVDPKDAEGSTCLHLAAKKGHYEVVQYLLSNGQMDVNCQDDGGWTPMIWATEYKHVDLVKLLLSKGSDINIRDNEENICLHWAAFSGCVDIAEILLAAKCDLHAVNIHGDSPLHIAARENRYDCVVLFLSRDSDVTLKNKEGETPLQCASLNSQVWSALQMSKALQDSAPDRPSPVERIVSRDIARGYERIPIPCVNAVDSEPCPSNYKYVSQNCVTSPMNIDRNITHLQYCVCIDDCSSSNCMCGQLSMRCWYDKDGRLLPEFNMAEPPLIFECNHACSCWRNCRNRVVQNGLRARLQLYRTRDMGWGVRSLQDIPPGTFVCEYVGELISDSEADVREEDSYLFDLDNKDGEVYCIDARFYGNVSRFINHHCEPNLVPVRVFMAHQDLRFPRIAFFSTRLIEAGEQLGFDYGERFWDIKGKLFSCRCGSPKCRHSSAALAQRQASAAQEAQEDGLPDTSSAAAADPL

human EHMT2 913-1193 = target: T2, human EHMT2 913-1193 (Homo sapiens, UniProt Q96KQ7); experiment: biochemical; settings: recombinant human EHMT2 913-1193, histone H3 1-15 peptide, 3H-SAM, balanced conditions; read-out: EHMT2 PEP (IC50 μM)
T2 construct: recombinant purified human EHMT2 913-1193, Viva; purchased Viva
T2 sequence (Q96KQ7 913-1193): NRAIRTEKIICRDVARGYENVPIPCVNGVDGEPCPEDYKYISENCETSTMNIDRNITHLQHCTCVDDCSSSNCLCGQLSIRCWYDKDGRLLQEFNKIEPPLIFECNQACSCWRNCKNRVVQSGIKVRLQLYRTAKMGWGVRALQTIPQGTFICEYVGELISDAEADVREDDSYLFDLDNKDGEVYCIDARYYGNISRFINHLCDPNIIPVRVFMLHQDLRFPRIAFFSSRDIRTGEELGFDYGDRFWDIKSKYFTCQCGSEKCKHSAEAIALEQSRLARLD
Text: Biotinylated histone peptides were synthesized by Biopeptide and HPLC-purified to >95% purity. Streptavidin Flashplates and seals were purchased from PerkinElmer and 384 Well V-bottom Polypropylene Plates were from Greiner. ^3H-labeled S-adenosylmethionine (^3H-SAM) was obtained from American Radiolabeled Chemicals with a specific activity of 80 Ci/mmol. Unlabeled SAM and S-adenosylhomocysteine (SAH) were obtained from American Radiolabeled Chemicals and Sigma-Aldrich respectively. […] 384-well Flashplates and 96-well filter binding plates were read on a TopCount microplate reader (PerkinElmer). Compound serial dilutions were performed on a Freedom EVO (Tecan) and spotted into assay plates using a Thermo Scientific Matrix PlateMate (Thermo Scientific). Reagent cocktails were added by Multidrop Combi (Thermo Scientific).
General Procedure for EHMT2 Enzyme Assay on Histone Peptide Substrate. 10-point curves of test compounds were made on a Freedom EVO (Tecan) using serial 3-fold dilutions in DMSO, beginning at 2.5 mM (final top concentration of compound was 50 μM and the DMSO was 2%). A 1 μL aliquot of the inhibitor dilution series was spotted in a polypropylene 384-well V-bottom plate (Greiner) using a Thermo Scientific Matrix PlateMate (Thermo Scientific). […] Reactions were incubated for 60 minutes at room temperature and quenched with 10 μL per well of 400 μM unlabeled SAM, then transferred to a 384-well streptavidin Flashplate (PerkinElmer) and washed in a Biotek ELx-405 well washer with 0.1% Tween after 60 minutes. 384-well Flashplates were read on a TopCount microplate reader (PerkinElmer).

An IC50 (EHMT1) of less than 0.1 µM and an IC50 (human EHMT2 913-1193) of less than 0.1 µM were found for `CNC1=Nc2cc(C#C[C@H](C)N3CCCC3)c(OC)cc2C12CCC2` [Compound 85] in this work.

An IC50 (EHMT1) of less than 0.1 µM and an IC50 (human EHMT2 913-1193) of 0.1 to 1 µM were found for `CCNc1nc2cc(OCCCN3CCCC3)c(OC)cc2n1C` [Compound 27] in this work.

An IC50 (EHMT1) of less than 0.1 µM and an IC50 (human EHMT2 913-1193) of 0.1 to 1 µM were found for `CCN1CC(COc2cc3nc(N)n(C4CCCC4)c3cc2OC)C1` [Compound 10, 1-cyclopentyl-5-((1-ethylazetidin-3-yl)methoxy)-6-methoxy-1H-benzo[d]imidazol-2-amine] in this work.

An IC50 (EHMT1) of 0.1 to 1 µM and an IC50 (human EHMT2 913-1193) of 0.1 to 1 µM were found for `COc1cc2c(cc1OCCCN1CCCC1)nc(N)n2CC(F)(F)F` [Compound 11, 6-methoxy-5-(3-(pyrrolidin-1-yl)propoxy)-1-(2,2,2-trifluoroethyl)-1H-benzo[d]imidazole-2-amine] in this work.

An IC50 (EHMT1) of 1 to 10 µM and an IC50 (human EHMT2 913-1193) of 1 to 10 µM were found for `COc1cc2c(cc1OCCCN1CCCC1)nc(NC1CCOCC1)n2C` [Compound 29] in this work.

An IC50 (EHMT1) of less than 0.1 µM and an IC50 (human EHMT2 913-1193) of less than 0.1 µM were found for `CNc1nc2cc(OCCCN3CCCC3)c(OC)cc2n1C(C)C` [Compound 36] in this work.

An IC50 (EHMT1) of less than 0.1 µM and an IC50 (human EHMT2 913-1193) of less than 0.1 µM were found for `COc1cc2c(cc1OCCCN1CCCC1)nc(N)n2C1CCCC1` [Compound 3, 1-cyclopentyl-6-methoxy-5-(3-(pyrrolidin-1-yl)propoxy)-1H-benzo[d]imidazol-2-amine] in this work.

An IC50 (EHMT1) of less than 0.1 µM and an IC50 (human EHMT2 913-1193) of less than 0.1 µM were found for `CCNC1=Nc2cc(CNCCN3CCC3)c(OC)cc2C12CCC2` [Compound 72] in this work.

An IC50 (EHMT1) of less than 0.1 µM and an IC50 (human EHMT2 913-1193) of less than 0.1 µM were found for `CNc1nc2cc(OCCCN3CCCC3)c(OC)cc2n1C` [Compound 8, 6-methoxy-N,1-dimethyl-5-(3-(pyrrolidin-1-yl)propoxy)-1H-benzo[d]imidazol-2-amine] in this work.

An IC50 (EHMT1) of less than 0.1 µM and an IC50 (human EHMT2 913-1193) of 0.1 to 1 µM were found for `COc1cc2c(cc1OC[C@H](O)CN1CCCC1)nc(NCC1CC1)n2C` [Compound 34] in this work.

An IC50 (EHMT1) of less than 0.1 µM and an IC50 (human EHMT2 913-1193) of less than 0.1 µM were found for `CCN1CC[C@@H](COc2cc3nc(N)n(C4CCCC4)c3cc2OC)C1` [Compound 9, 1-cyclopentyl-5-[[(3R)-1-ethylpyrrolidin-3-yl]methoxy]-6-methoxy-1H-1,3-benzodiazol-2-amine] in this work.

An IC50 (EHMT1) of 0.1 to 1 µM and an IC50 (human EHMT2 913-1193) of 0.1 to 1 µM were found for `COc1cc2c(cc1OCCCN1CCCC1)nc(NC(C)C)n2C` [Compound 28] in this work.
